Assay results: ChEMBL document CHEMBL4138123, “Design, synthesis and biological evaluation of novel pyrazolochalcones as potential modulators of PI3K/Akt/mTOR pathway and inducers of apoptosis in breast cancer cells” (Eur J Med Chem, 2017)

Experiments:
Format in all cases: functional
SK-OV-3 [1] = assay: Cytotoxicity against human SKOV3 cells assessed as cell growth at 10 uM after 48 hrs by sulforhodamine B assay relative to control; settings: SK-OV-3, 48 h, read-out: Activity
UO-31 = assay: Cytotoxicity against human UO31 cells assessed as cell growth at 10 uM after 48 hrs by sulforhodamine B assay relative to control; settings: UO-31, 48 h, read-out: Activity
PC-3 = assay: Cytotoxicity against human PC3 cells assessed as cell growth at 10 uM after 48 hrs by sulforhodamine B assay relative to control; settings: PC-3, 48 h, read-out: Activity
HCC 2998 [2] = assay: Cytotoxicity against human HCC2998 cells assessed as cell growth at 1 uM after 48 hrs by sulforhodamine B assay relative to control; settings: HCC 2998, 48 h, read-out: Activity
UACC-257 [3] = assay: Cytotoxicity against human UACC257 cells assessed as cell growth at 0.1 uM after 48 hrs by sulforhodamine B assay relative to control; settings: UACC-257, 48 h, read-out: Activity
NCI-H226 = assay: Cytotoxicity against human NCI-H226 cells assessed as cell growth at 1 uM after 48 hrs by sulforhodamine B assay relative to control; settings: NCI-H226, 48 h, read-out: Activity
UACC-257 [4] = assay: Cytotoxicity against human UACC257 cells assessed as cell growth at 10 uM after 48 hrs by sulforhodamine B assay relative to control; settings: UACC-257, 48 h, read-out: Activity
HL-60(TB) = assay: Cytotoxicity against human HL-60(TB) cells assessed as cell growth at 0.1 uM after 48 hrs by sulforhodamine B assay relative to control; settings: HL-60, 48 h, read-out: Activity
OVCAR-3 [5] = assay: Cytotoxicity against human OVCAR3 cells assessed as cell growth at 10 uM after 48 hrs by sulforhodamine B assay relative to control; settings: OVCAR-3, 48 h, read-out: Activity
NCI-H322M = assay: Cytotoxicity against human NCI-H322M cells assessed as cell growth at 10 uM after 48 hrs by sulforhodamine B assay relative to control; settings: read-out: Activity
786-0 = assay: Cytotoxicity against human 786-0 cells assessed as cell growth at 1 uM after 48 hrs by sulforhodamine B assay relative to control; settings: 786-0, 48 h, read-out: Activity
UACC-62 [6] = assay: Cytotoxicity against human UACC62 cells assessed as cell growth at 100 uM after 48 hrs by sulforhodamine B assay relative to control; settings: UACC-62, 48 h, read-out: Activity
UACC-257 [7] = assay: Cytotoxicity against human UACC257 cells assessed as cell growth at 1 uM after 48 hrs by sulforhodamine B assay relative to control; settings: UACC-257, 48 h, read-out: Activity
RPMI-8226 [8] = assay: Cytotoxicity against human RPMI8226 cells assessed as cell growth at 1 uM after 48 hrs by sulforhodamine B assay relative to control; settings: RPMI-8226, 48 h, read-out: Activity
SK-MEL-28 = assay: Cytotoxicity against human SK-MEL-28 cells assessed as cell growth at 100 uM after 48 hrs by sulforhodamine B assay relative to control; settings: SK-MEL-28, 48 h, read-out: Activity
OVCAR-3 [9] = assay: Cytotoxicity against human OVCAR3 cells assessed as cell growth at 100 uM after 48 hrs by sulforhodamine B assay relative to control; settings: OVCAR-3, 48 h, read-out: Activity
RPMI-8226 [10] = assay: Cytotoxicity against human RPMI8226 cells assessed as cell growth at 100 uM after 48 hrs by sulforhodamine B assay relative to control; settings: RPMI-8226, 48 h, read-out: Activity
SK-MEL-5 = assay: Cytotoxicity against human SK-MEL-5 cells assessed as cell growth at 100 uM after 48 hrs by sulforhodamine B assay relative to control; settings: SK-MEL-5, 48 h, read-out: Activity
OVCAR-3 [11] = assay: Cytotoxicity against human OVCAR3 cells assessed as cell growth at 0.01 uM after 48 hrs by sulforhodamine B assay relative to control; settings: OVCAR-3, 48 h, read-out: Activity
TK-10 = assay: Cytotoxicity against human TK10 cells assessed as cell growth at 100 uM after 48 hrs by sulforhodamine B assay relative to control; settings: TK-10, 48 h, read-out: Activity
OVCAR-4 = assay: Cytotoxicity against human OVCAR4 cells assessed as cell growth at 0.1 uM after 48 hrs by sulforhodamine B assay relative to control; settings: OVCAR-4, 48 h, read-out: Activity
HCC 2998 [12] = assay: Cytotoxicity against human HCC2998 cells assessed as cell growth at 0.1 uM after 48 hrs by sulforhodamine B assay relative to control; settings: HCC 2998, 48 h, read-out: Activity
SN12C = assay: Cytotoxicity against human SN12C cells assessed as growth inhibition after 48 hrs by sulforhodamine B assay
DU-145 = assay: Cytotoxicity against human DU145 cells assessed as cell growth at 0.1 uM after 48 hrs by sulforhodamine B assay relative to control; settings: DU-145, 48 h, read-out: Activity
KM12 [13] = assay: Cytotoxicity against human KM12 cells assessed as growth inhibition after 48 hrs by sulforhodamine B assay; settings: KM12, 48 h
KM12 [14] = assay: Cytotoxicity against human KM12 cells assessed as cell growth at 100 uM after 48 hrs by sulforhodamine B assay relative to control; settings: KM12, 48 h, read-out: Activity
K562 = assay: Cytotoxicity against human K562 cells assessed as cell growth at 10 uM after 48 hrs by sulforhodamine B assay relative to control; settings: K562, 48 h, read-out: Activity
BT-549 = assay: Cytotoxicity against human BT549 cells assessed as cell growth at 10 uM after 48 hrs by sulforhodamine B assay relative to control; settings: BT-549, 48 h, read-out: Activity
NCI/ADR-RES = assay: Cytotoxicity against human NCI/ADR-RES cells assessed as cell growth at 0.01 uM after 48 hrs by sulforhodamine B assay relative to control; settings: read-out: Activity
T47D = assay: Cytotoxicity against human T47D cells assessed as cell growth at 10 uM after 48 hrs by sulforhodamine B assay relative to control; settings: read-out: Activity
SF-539 = assay: Cytotoxicity against human SF539 cells assessed as cell growth at 100 uM after 48 hrs by sulforhodamine B assay relative to control; settings: SF-539, 48 h, read-out: Activity
UACC-62 [15] = assay: Cytotoxicity against human UACC62 cells assessed as cell growth at 0.1 uM after 48 hrs by sulforhodamine B assay relative to control; settings: UACC-62, 48 h, read-out: Activity
SK-OV-3 [16] = assay: Cytotoxicity against human SKOV3 cells assessed as cell growth at 1 uM after 48 hrs by sulforhodamine B assay relative to control; settings: SK-OV-3, 48 h, read-out: Activity
Hs-578T = assay: Cytotoxicity against human Hs 578T cells assessed as growth inhibition after 48 hrs by sulforhodamine B assay
OVCAR-5 = assay: Cytotoxicity against human OVCAR5 cells assessed as cell growth at 1 uM after 48 hrs by sulforhodamine B assay relative to control; settings: OVCAR-5, 48 h, read-out: Activity
M14 = assay: Cytotoxicity against human M14 cells assessed as cell growth at 1 uM after 48 hrs by sulforhodamine B assay relative to control; settings: M14, 48 h, read-out: Activity

## COc1ccc(C(=O)/C=C/c2cc(-c3cc(OC)c(OC)c(OC)c3)n[nH]2)cc1OC
SK-OV-3 [1]
  growth at 10 µM: -12%
UO-31
  growth at 10 µM: -97%
PC-3
  growth at 10 µM: -88%
HCC 2998 [2]
  growth at 1 µM: 116%
UACC-257 [3]
  growth at 0.1 µM: 89%
NCI-H226
  growth at 1 µM: 89%
UACC-257 [4]
  growth at 10 µM: -98%
HL-60(TB)
  growth at 0.1 µM: 94%
OVCAR-3 [5]
  growth at 10 µM: -91%
NCI-H322M
  growth at 10 µM: -96%
786-0
  growth at 1 µM: 74%
UACC-62 [6]
  growth at 100 µM: -93%
UACC-257 [7]
  growth at 1 µM: 81%
RPMI-8226 [8]
  growth at 1 µM: 2%
SK-MEL-28
  growth at 100 µM: -90%
OVCAR-3 [9]
  growth at 100 µM: -84%
RPMI-8226 [10]
  growth at 100 µM: -41%
SK-MEL-5
  growth at 100 µM: -92%
OVCAR-3 [11]
  growth at 0.01 µM: 100%
TK-10
  growth at 100 µM: -99%
OVCAR-4
  growth at 0.1 µM: 96%
HCC 2998 [12]
  growth at 0.1 µM: 88%
SN12C
  LC50: 6.37 µM
  TGI: 3.13 µM
DU-145
  growth at 0.1 µM: 101%
KM12 [13]
  LC50: 5.43 µM
  TGI: 2.41 µM
KM12 [14]
  growth at 100 µM: -75%
K562
  growth at 10 µM: -13%
BT-549
  growth at 10 µM: -88%
NCI/ADR-RES
  growth at 0.01 µM: 99%
T47D
  growth at 10 µM: -42%
SF-539
  growth at 100 µM: -96%
UACC-62 [15]
  growth at 0.1 µM: 95%
SK-OV-3 [16]
  growth at 1 µM: 100%
Hs-578T
  LC50: > 100 µM
  TGI: 8.2 µM
OVCAR-5
  growth at 1 µM: 86%
M14
  growth at 1 µM: 94%

## COc1cc(C(=O)/C=C/c2cc(-c3ccc4c(c3)OCO4)n[nH]2)cc(OC)c1OC
SK-OV-3 [1]
  growth at 10 µM: 19%
UO-31
  growth at 10 µM: -96%
PC-3
  growth at 10 µM: -46%
HCC 2998 [2]
  growth at 1 µM: 100%
UACC-257 [3]
  growth at 0.1 µM: 97%
NCI-H226
  growth at 1 µM: 70%
UACC-257 [4]
  growth at 10 µM: -2%
HL-60(TB)
  growth at 0.1 µM: 98%
OVCAR-3 [5]
  growth at 10 µM: -73%
NCI-H322M
  growth at 10 µM: -22%
786-0
  growth at 1 µM: 98%
UACC-62 [6]
  growth at 100 µM: -96%
UACC-257 [7]
  growth at 1 µM: 96%
RPMI-8226 [8]
  growth at 1 µM: 32%
SK-MEL-28
  growth at 100 µM: -96%
OVCAR-3 [9]
  growth at 100 µM: -97%
RPMI-8226 [10]
  growth at 100 µM: -47%
SK-MEL-5
  growth at 100 µM: -97%
OVCAR-3 [11]
  growth at 0.01 µM: 98%
TK-10
  growth at 100 µM: -96%
OVCAR-4
  growth at 0.1 µM: 94%
HCC 2998 [12]
  growth at 0.1 µM: 100%
SN12C
  GI50: 2.26 µM
  LC50: 23.4 µM
  TGI: 6.28 µM
DU-145
  growth at 0.1 µM: 99%
KM12 [13]
  GI50: 1.86 µM
  LC50: 7.97 µM
  TGI: 3.85 µM
KM12 [14]
  growth at 100 µM: -79%
K562
  growth at 10 µM: 3%
BT-549
  growth at 10 µM: -38%
NCI/ADR-RES
  growth at 0.01 µM: 95%
T47D
  growth at 10 µM: -34%
SF-539
  growth at 100 µM: -85%
UACC-62 [15]
  growth at 0.1 µM: 97%
SK-OV-3 [16]
  growth at 1 µM: 107%
Hs-578T
  GI50: 3.14 µM
  LC50: > 100 µM
  TGI: 20.5 µM
OVCAR-5
  growth at 1 µM: 87%
M14
  growth at 1 µM: 96%
